Data taken from US20240207292A1, “BORONIC ACID COMPOUNDS, COMPOSITIONS AND METHODS” (Trustees of Tufts College, priority 2021, published 2024).
Square brackets hold non-standard residues; d marks the D form. Peptide text beside a SMILES is read from it. * marks the point of attachment. DOTA(Ga) = O=C1CN2CCN3CCN(CC(=O)*)CCN(CC2)CC(=O)[O][Ga]([O]1)[O]C(=O)C3; DOTA = O=C(O)CN1CCN(CC(=O)O)CCN(CC(=O)*)CCN(CC(=O)O)CC1; X6 = CN1CC(=O)C2(C1)OC([C@@H]1CCCN1*)OC2=O; boroPro = OB(O)[C@@H]1CCCN1*

Biological target: recombinant human fibroblast activation protein (FAP) (Homo sapiens (Human), UniProt Q12884)
Sequence (Q12884 whole entry): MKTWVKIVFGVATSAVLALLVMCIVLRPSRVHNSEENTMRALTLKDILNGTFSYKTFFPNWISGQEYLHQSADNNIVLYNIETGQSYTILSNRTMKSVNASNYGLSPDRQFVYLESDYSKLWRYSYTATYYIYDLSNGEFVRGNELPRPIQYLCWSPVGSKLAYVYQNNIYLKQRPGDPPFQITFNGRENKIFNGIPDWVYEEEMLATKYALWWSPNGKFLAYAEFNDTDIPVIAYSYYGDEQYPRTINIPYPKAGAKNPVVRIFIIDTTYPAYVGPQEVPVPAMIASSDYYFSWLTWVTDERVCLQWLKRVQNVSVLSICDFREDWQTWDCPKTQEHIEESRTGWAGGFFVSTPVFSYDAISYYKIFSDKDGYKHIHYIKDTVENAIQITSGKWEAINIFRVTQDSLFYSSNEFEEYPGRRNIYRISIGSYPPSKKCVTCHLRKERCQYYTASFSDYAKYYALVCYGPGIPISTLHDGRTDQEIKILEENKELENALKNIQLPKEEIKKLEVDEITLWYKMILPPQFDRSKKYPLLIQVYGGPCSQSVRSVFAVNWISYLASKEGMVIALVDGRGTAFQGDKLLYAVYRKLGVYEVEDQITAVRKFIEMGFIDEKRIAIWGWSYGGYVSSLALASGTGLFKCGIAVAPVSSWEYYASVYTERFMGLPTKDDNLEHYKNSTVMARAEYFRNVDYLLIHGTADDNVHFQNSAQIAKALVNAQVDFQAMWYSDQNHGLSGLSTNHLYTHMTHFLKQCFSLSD
Assay: In vitro assay fibroblast activation protein IC50 (Example 21)
Assay type: biochemical
Conditions: not given
Method: (§1) The purpose of this assay is to determine the IC50 of various inhibitors against recombinant human dipeptidyl peptidase IV (DPPIV), fibroblast activation protein (FAP) or prolyl oligopeptidase (PREP).
(§2) The assays are conducted in the following steps: • 1 Dissolve the compound in DMSO to a final concentration of 100 mM. From this, prepare a 1 mM stock at pH 7.5 in 50 mM Tris, 140 mM NaCl Buffer (FAP)/pH 7.5 in 25 mM Tris, 250 mM NaCl Buffer/[…]. • 2. Serial dilute (1:10) the 1 mM compound stocks prepared previously into the appropriate assay buffer (FAP: 50 mM Tris, 140 mM NaCl, pH 7.5/PREP: 25 mM Tris, 0.25 M NaCl, pH 7.5/DPPIV: 25 mM Tris, pH 8.0) to one row of a 96-well plate. • 3. […] Dilute the enzymes into their appropriate assay buffers. The final enzyme concentrations should be 0.1, 1.2, and 0.6 nM for DPPIV, FAP and PREP respectively. Add 180 μL to each well needed in columns 2-10. Column 1(A,B,C) should be prepared with 200 μl of appropriate assay buffer as control. Column 1(D,E,F,G,H) should be prepared with 20 μl of appropriate assay buffer and 180 ul enzyme as no inhibitor control. • 5. Add 20 μL of the compound of interest from the dilution plate prepared in step 2 to columns 2-10 of the assay plate where appropriate. Each sample should be tested in triplicate. Allow this to incubate for 10 minutes at room temperature, shaking the plate for the first two minutes. • 6. Add 10 μL of 20× substrate prepared in step 3 to each well and allow this to incubate for 15 minutes at room temperature, shaking the plate for the first two minutes. • 7. Read the fluorescence at λex: 380, λem: 460. (DPcore=[dAla|dSer|Gly]-[boroPro|Pro-nitrile], XXaa=alpha-amino acid)

Point of comparison: `C[C@@H](NC(=O)c1ccc(NNC(=O)CCCNC(=O)CN2CCN3CCN4CCN(CC2)CC(=O)[O][Gd]([O]C(=O)C3)[O]C(=O)C4)nc1)C(=O)N1CCC[C@H]1B(O)O` [6489 GD], IC50 0.0011 µM. Against it:
- C[C@@H](NC(=O)c1ccc(NNC(=O)CCCCC[N+]2=C(/C=C/C3=C(Oc4ccc(S(=O)(=O)O)cc4)C(=C/C=C4/N(CCCCS(=O)(=O)O)c5ccc(S(=O)(=O)O)cc5C4(C)C)/CCC3)C(C)(C)c3cc(S(=O)(=O)O)ccc32)cc1)C(=O)N1CCC[C@H]1B(O)O [4613 C] — 1.5-fold higher, 0.0017 µM
- C[C@@H](NC(=O)c1ccc(NNC(=O)CN2CCN3CCN(CC(=O)O)CCN(CC2)CC(=O)[O][Cu][O]C(=O)C3)cc1)C(=O)N1CCC[C@H]1B(O)O [5183BU] — 9.4-fold higher, 0.0103 µM
- C[C@@H](NC(=O)c1ccc(NNC(=O)CN2CCN3CCN4CCN(CC2)CC(=O)[O][Ga]([O]C(=O)C3)[O]C(=O)C4)nc1)C(=O)N1CCC[C@H]1B(O)O [5183GA] — 42-fold higher, 0.0461 µM
- C[C@@H](NC(=O)c1ccc(NNC(=O)CNC(=O)CN2CCN3CCN(CC(=O)O)CCN(CC2)CC(=O)[O][Cu][O]C(=O)C3)cc1)C(=O)N1CCC[C@H]1B(O)O [6487CU] — 8-fold higher, 0.0088 µM
- C[C@@H](NC(=O)c1ccc(NNC(=O)CNC(=O)CN2CCN3CCN4CCN(CC2)CC(=O)[O][Ga]([O]C(=O)C3)[O]C(=O)C4)cc1)C(=O)N1CCC[C@H]1B(O)O [6487GA] — 19-fold higher, 0.0208 µM
- C[C@@H](NC(=O)c1ccc(NNC(=O)CNC(=O)CN2CCN3CCN4CCN(CC2)CC(=O)[O][Lu]([O]C(=O)C3)[O]C(=O)C4)cc1)C(=O)N1CCC[C@H]1B(O)O [6487LU] — 8-fold higher, 0.0088 µM
- C[C@@H](NC(=O)c1ccc(CNC(=O)CN2CCN3CCN4CCN(CC2)CC(=O)[O][Ga]([O]C(=O)C3)[O]C(=O)C4)nc1)C(=O)N1CCC[C@H]1B(O)O [6556GA] — 29-fold higher, 0.032 µM
- C[C@@H](NC(=O)c1ccc(NC(=O)CCCCNC(=O)CN2CCN3CCN4CCN(CC2)CC(=O)[O][Ga]([O]C(=O)C3)[O]C(=O)C4)cc1)C(=O)N1CCC[C@H]1B(O)O [6590 GA] — 14-fold higher, 0.015 µM
- C[C@@H](NC(=O)c1ccc(NC(=O)CCNC(=O)CN2CCN3CCN4CCN(CC2)CC(=O)[O][Lu]([O]C(=O)C3)[O]C(=O)C4)cc1)C(=O)N1CCC[C@H]1B(O)O [6590LU] — 2.8-fold lower, 0.0004 µM
- CC(C)[C@H](NC(=O)c1ccc(CNC(=O)CN2CCN3CCN4CCN(CC2)CC(=O)[O][Ga]([O]C(=O)C3)[O]C(=O)C4)cc1)C(=O)N[C@H](C)C(=O)N1CCC[C@H]1B(O)O [6967 GA] — 59-fold higher, 0.065 µM
- C[C@@H](NC(=O)c1ccc(NNC(=O)CCCCCNC(=O)CN2CCN(CC(=O)O)CCN(CC(=O)O)CCN(CC(=O)O)CC2)nc1)C(=O)N1CCC[C@H]1B(O)O [compound 6958] — 2.9-fold higher, 0.0032 µM

Same assay, conditions: Z-Gly-Pro-AMC; 1.2 nM enzyme

Point of comparison: `CC(C)[C@H](NC(=O)CNC(=O)CN1CCN2CCN3CCN(CC1)CC(=O)[O][Ga]([O]C(=O)C2)[O]C(=O)C3)C(=O)N[C@H](C)C(=O)N1CCC[C@H]1B(O)O` [6521GA], IC50 0.277 µM. Against it:
- C[C@@H](NC(=O)CN1CCN2CC(=O)O[C]3(CN4CCN5CC(=O)O[C](C1)(C5)[Gd]3[O]C(=O)C4)C2)C(=O)N1CCC[C@H]1B(O)O (stereo partly shown) [4535GD] — 2.7-fold higher, 0.76 µM
- CC(C)[C@H](NC(=O)CNC(=O)CNC(=O)CN1CCN(CC(=O)O)CCN(CC(=O)O)CCN(CC(=O)O)CC1)C(=O)N[C@H](C)C(=O)N1CCC[C@H]1C1OC(=O)C2(CN(C)CC2=O)O1 (stereo partly shown) [6522M] ({DOTA}-GGV[dA]-X6) — within 1.5-fold, 0.28 µM
- CC(C)[C@H](NC(=O)CCCNC(=O)CN1CCN2CCN3CCN(CC1)CC(=O)[O][Ga]([O]C(=O)C2)[O]C(=O)C3)C(=O)N[C@H](C)C(=O)N1CCC[C@H]1B(O)O [6614GA, DOTA(Ga)-GABA-Val-D-ala-boroPro] — within 1.5-fold, 0.218 µM
- CC(C)[C@H](NC(=O)CNC(=O)CNC(=O)CNC(=O)CN1CCN2CCN3CCN(CC1)CC(=O)[O][Ga]([O]C(=O)C2)[O]C(=O)C3)C(=O)N[C@H](C)C(=O)N1CCC[C@H]1B(O)O [6834GA] ({DOTA(Ga)}-GGGV[dA]-boroPro) — 1.6-fold higher, 0.439 µM

Biological target: recombinant human prolyl oligopeptidase (PREP) (Homo sapiens (Human), UniProt P48147)
Sequence (P48147 whole entry): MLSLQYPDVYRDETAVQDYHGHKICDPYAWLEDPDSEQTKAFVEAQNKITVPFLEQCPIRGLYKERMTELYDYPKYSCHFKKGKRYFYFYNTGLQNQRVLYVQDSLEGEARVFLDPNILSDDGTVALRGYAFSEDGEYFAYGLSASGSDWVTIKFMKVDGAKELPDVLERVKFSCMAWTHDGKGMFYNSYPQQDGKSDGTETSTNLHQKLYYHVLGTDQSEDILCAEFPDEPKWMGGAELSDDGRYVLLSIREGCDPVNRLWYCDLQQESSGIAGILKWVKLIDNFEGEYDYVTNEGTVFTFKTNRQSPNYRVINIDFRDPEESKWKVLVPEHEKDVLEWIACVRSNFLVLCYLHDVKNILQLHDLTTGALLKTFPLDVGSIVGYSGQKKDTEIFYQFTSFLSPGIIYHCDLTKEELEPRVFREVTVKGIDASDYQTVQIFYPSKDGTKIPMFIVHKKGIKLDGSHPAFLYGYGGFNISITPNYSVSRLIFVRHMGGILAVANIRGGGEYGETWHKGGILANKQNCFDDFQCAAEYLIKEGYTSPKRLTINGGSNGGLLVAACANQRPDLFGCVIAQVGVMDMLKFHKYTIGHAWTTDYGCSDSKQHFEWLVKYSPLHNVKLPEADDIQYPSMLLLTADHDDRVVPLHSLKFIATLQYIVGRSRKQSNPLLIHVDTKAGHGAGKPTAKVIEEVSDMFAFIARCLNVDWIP
Assay: In vitro assay prolyl oligopeptidase IC50 (Example 21)
Assay type: biochemical
Conditions: not given
Method: as §1, §2

Point of comparison: `C[C@@H](NC(=O)c1ccc(NNC(=O)CCCCC[N+]2=C(/C=C/C3=C(Oc4ccc(S(=O)(=O)O)cc4)C(=C/C=C4/N(CCCCS(=O)(=O)O)c5ccc(S(=O)(=O)O)cc5C4(C)C)/CCC3)C(C)(C)c3cc(S(=O)(=O)O)ccc32)cc1)C(=O)N1CCC[C@H]1B(O)O` [4613 C], IC50 0.61 µM. Against it:
- C[C@@H](NC(=O)c1ccc(NNC(=O)CNC(=O)CN2CCN3CCN4CCN(CC2)CC(=O)[O][Ga]([O]C(=O)C3)[O]C(=O)C4)cc1)C(=O)N1CCC[C@H]1B(O)O [6487GA] — 2-fold higher, 1.2 µM
- C[C@@H](NC(=O)c1ccc(NNC(=O)CNC(=O)CN2CCN3CCN4CCN(CC2)CC(=O)[O][Lu]([O]C(=O)C3)[O]C(=O)C4)cc1)C(=O)N1CCC[C@H]1B(O)O [6487LU] — 18-fold lower, 0.034 µM
- C[C@@H](NC(=O)c1ccc(CNC(=O)CN2CCN3CCN4CCN(CC2)CC(=O)[O][Ga]([O]C(=O)C3)[O]C(=O)C4)nc1)C(=O)N1CCC[C@H]1B(O)O [6556GA] — 2.5-fold lower, 0.248 µM

Same assay, conditions: Z-Gly-Pro-AMC; 0.6 nM enzyme

Molecule `C[C@@H](NC(=O)CN1CCN2CC(=O)O[C]3(CN4CCN5CC(=O)O[C](C1)(C5)[Gd]3[O]C(=O)C4)C2)C(=O)N1CCC[C@H]1B(O)O` (stereo partly shown) [4535GD] has an IC50 of over 10 µM.
